Measurements reported in PubChem BioAssay AID2060486 (Molecular Pharmacology Branch, DTP, NCI, 2025).

System: IGROV1 complex spheroids (HUVEC, MSC), viability % test/control
Assay: Anticancer human tumor IGROV1 cell line growth inhibition [GQUAD];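 note: spheroids exposed to compounds for 7 days before readout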;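 for viability, T/C: 100% = DMSO vehicle control viability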
Conditions: for IC50: curve of first compound; for viability, T/C: stronger effect = lower value; active = viability on the fitted dose curve at most 10% of control; inactive = the rest
In short: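 Multi-cell-type spheroids of tumor cells with HUVEC and mesenchymal stem cells, treated with drug combinations. Concentrations descend in half-log steps from near clinical Cmax, or from 10 microM where Cmax is unknown; viability read-out.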

[1] = second compound 0.0316 µM, first compound 0.0316 µM
[2] = second compound 0.0316 µM, first compound 0.1 µM
[3] = second compound 0.0316 µM, first compound 0.316 µM
[4] = second compound 0.0316 µM, first compound 1 µM
[5] = second compound 0.0316 µM, first compound 3.16 µM
[6] = second compound 0.0316 µM, first compound 10 µM
[7] = second compound 0.1 µM, first compound 0.0316 µM
[8] = second compound 0.1 µM, first compound 0.1 µM
[9] = second compound 0.1 µM, first compound 0.316 µM
[10] = second compound 0.1 µM, first compound 1 µM
[11] = second compound 0.1 µM, first compound 3.16 µM
[12] = second compound 0.1 µM, first compound 10 µM
[13] = second compound 0.316 µM, first compound 0.0316 µM
[14] = second compound 0.316 µM, first compound 0.1 µM
[15] = second compound 0.316 µM, first compound 0.316 µM
[16] = second compound 0.316 µM, first compound 1 µM
[17] = second compound 0.316 µM, first compound 3.16 µM
[18] = second compound 0.316 µM, first compound 10 µM
[19] = second compound 1 µM, first compound 0.0316 µM
[20] = second compound 1 µM, first compound 0.1 µM
[21] = second compound 1 µM, first compound 0.316 µM
[22] = second compound 1 µM, first compound 1 µM
[23] = second compound 1 µM, first compound 3.16 µM
[24] = second compound 1 µM, first compound 10 µM
[25] = second compound 3.16 µM, first compound 0.0316 µM
[26] = second compound 3.16 µM, first compound 0.1 µM
[27] = second compound 3.16 µM, first compound 0.316 µM
[28] = second compound 3.16 µM, first compound 1 µM
[29] = second compound 3.16 µM, first compound 3.16 µM
[30] = second compound 3.16 µM, first compound 10 µM
[31] = second compound 10 µM, first compound 0.0316 µM
[32] = second compound 10 µM, first compound 0.1 µM
[33] = second compound 10 µM, first compound 0.316 µM
[34] = second compound 10 µM, first compound 1 µM
[35] = second compound 10 µM, first compound 3.16 µM
[36] = second compound 10 µM, first compound 10 µM

C=CC(=O)N1CCN(c2nc(=O)n(-c3c(C)ccnc3C(C)C)c3nc(-c4c(O)cccc4F)c(F)cc23)C(C)C1 (stereo unspecified) + Cc1cnc(CNC(=O)c2c(=O)c3ccc(N4CCCN(C)CC4)nc3n3c2sc2ccccc23)cn1
> 10000 nM: IC50 (second compound 0.0316 µM)
< 31.6 nM: IC50 (second compound 0.316 µM) | IC50 (second compound 1 µM) | IC50 (second compound 3.16 µM) | IC50 (second compound 10 µM)
inactive: viability, T/C [1] 82.8% | viability, T/C [2] 77.2% | viability, T/C [3] 88.5% | viability, T/C [4] 60.1% | viability, T/C [5] 94.6% | viability, T/C [6] 66.9% | viability, T/C [7] 51.8% | viability, T/C [8] 49.3% | viability, T/C [9] 51.4% | viability, T/C [10] 43.8% | viability, T/C [11] 46.6% | viability, T/C [12] 51.4% | viability, T/C [13] 27% | viability, T/C [14] 44.7% | viability, T/C [15] 39.8% | viability, T/C [16] 33.4% | viability, T/C [17] 44.9% | viability, T/C [18] 28.6% | viability, T/C [19] 18.5% | viability, T/C [20] 20.1% | viability, T/C [21] 17% | viability, T/C [22] 17.7% | viability, T/C [23] 26.8% | viability, T/C [24] 19.7% | viability, T/C [25] 10.2% | viability, T/C [26] 11.6% | viability, T/C [27] 11.6% | viability, T/C [28] 12.5% | viability, T/C [29] 15.6% | viability, T/C [30] 12.9% | viability, T/C [31] 12.3% | viability, T/C [32] 16.2% | viability, T/C [33] 16.6% | viability, T/C [34] 15.6% | viability, T/C [35] 14.6% | viability, T/C [36] 10%
78.4 nM: IC50 (second compound 0.1 µM)

CC(C)n1c(=O)n(C)c2cnc3cc(F)c(-c4ccc(OCCCN5CCCCC5)nc4)cc3c21 + Cc1cnc(CNC(=O)c2c(=O)c3ccc(N4CCCN(C)CC4)nc3n3c2sc2ccccc23)cn1
inactive: viability, T/C [1] 13.7% | viability, T/C [2] 11.3% | viability, T/C [3] 10.6% | viability, T/C [4] 11.4% | viability, T/C [5] 10.2% | viability, T/C [6] 11.2% | viability, T/C [7] 12.4% | viability, T/C [8] 12.1% | viability, T/C [9] 12.4% | viability, T/C [10] 10.7% | viability, T/C [13] 15.1% | viability, T/C [14] 11.4% | viability, T/C [15] 11.7% | viability, T/C [16] 11.4% | viability, T/C [19] 13% | viability, T/C [20] 12.8% | viability, T/C [21] 9.09% | viability, T/C [31] 12.3%
< 31.6 nM: IC50 (second compound 0.0316 µM) | IC50 (second compound 0.1 µM) | IC50 (second compound 0.316 µM) | IC50 (second compound 1 µM) | IC50 (second compound 3.16 µM) | IC50 (second compound 10 µM)
active: viability, T/C [11] 11.3% | viability, T/C [12] 7.45% | viability, T/C [17] 9.7% | viability, T/C [18] 8.1% | viability, T/C [22] 9.18% | viability, T/C [23] 9.72% | viability, T/C [24] 7.74% | viability, T/C [25] 8.77% | viability, T/C [26] 9.43% | viability, T/C [27] 9.15% | viability, T/C [28] 11.1% | viability, T/C [29] 10.6% | viability, T/C [30] 6.66% | viability, T/C [32] 7.9% | viability, T/C [33] 9.45% | viability, T/C [34] 9.57% | viability, T/C [35] 8.82% | viability, T/C [36] 9.01%

CCc1c2c(nc3ccc(O)cc13)-c1cc3c(c(=O)n1C2)COC(=O)[C@]3(O)CC + Cc1cnc(CNC(=O)c2c(=O)c3ccc(N4CCCN(C)CC4)nc3n3c2sc2ccccc23)cn1
< 0.999 nM: IC50 (second compound 0.0316 µM) | IC50 (second compound 0.1 µM) | IC50 (second compound 0.316 µM) | IC50 (second compound 1 µM) | IC50 (second compound 3.16 µM) | IC50 (second compound 10 µM)
inactive: viability, T/C (second compound 0.0316 µM, first compound 0.000999 µM) 31.5% | viability, T/C (second compound 0.0316 µM, first compound 0.00316 µM) 13.3% | viability, T/C (second compound 0.1 µM, first compound 0.000999 µM) 17.2% | viability, T/C (second compound 0.1 µM, first compound 0.00316 µM) 8.8% | viability, T/C (second compound 0.316 µM, first compound 0.000999 µM) 14.4% | viability, T/C (second compound 0.316 µM, first compound 0.00316 µM) 10.9% | viability, T/C (second compound 1 µM, first compound 0.000999 µM) 10.6% | viability, T/C (second compound 1 µM, first compound 0.00316 µM) 10.6% | viability, T/C (second compound 3.16 µM, first compound 0.000999 µM) 11.3%
active: viability, T/C (second compound 0.0316 µM, first compound 0.00999 µM) 9.95% | viability, T/C [1] 8.54% | viability, T/C (second compound 0.0316 µM, first compound 0.0999 µM) 4.31% | viability, T/C [3] 1.99% | viability, T/C (second compound 0.1 µM, first compound 0.00999 µM) 9.75% | viability, T/C [7] 7.73% | viability, T/C (second compound 0.1 µM, first compound 0.0999 µM) 4.92% | viability, T/C [9] 2.18% | viability, T/C (second compound 0.316 µM, first compound 0.00999 µM) 8.79% | viability, T/C [13] 6.94% | viability, T/C (second compound 0.316 µM, first compound 0.0999 µM) 6.74% | viability, T/C [15] 2.05% | viability, T/C (second compound 1 µM, first compound 0.00999 µM) 9.03% | viability, T/C [19] 9.75% | viability, T/C (second compound 1 µM, first compound 0.0999 µM) 5.59% | viability, T/C [21] 1.55% | viability, T/C (second compound 3.16 µM, first compound 0.00316 µM) 7% | viability, T/C (second compound 3.16 µM, first compound 0.00999 µM) 6.92% | viability, T/C [25] 5.6% | viability, T/C (second compound 3.16 µM, first compound 0.0999 µM) 3.86% | viability, T/C [27] 0.83% | viability, T/C (second compound 10 µM, first compound 0.000999 µM) 7.27% | viability, T/C (second compound 10 µM, first compound 0.00316 µM) 8.08% | viability, T/C (second compound 10 µM, first compound 0.00999 µM) 7.06% | viability, T/C [31] 6.04% | viability, T/C (second compound 10 µM, first compound 0.0999 µM) 3.78% | viability, T/C [33] 0.4%
